According to ChEMBL document CHEMBL3826955, “Steric structure-activity relationship of cyproheptadine derivatives as inhibitors of histone methyltransferase Set7/9” (Bioorg Med Chem, 2016):

biological target: T1, Histone-lysine N-methyltransferase SETD7 (Homo sapiens, UniProt Q8WTS6); test: Inhibition of recombinant SET7/9 (unknown origin) using biotinylated histone H3-derived peptide/SAM as substrate after 60 mins by AlphaLISA assay
T1 sequence (Q8WTS6 whole entry): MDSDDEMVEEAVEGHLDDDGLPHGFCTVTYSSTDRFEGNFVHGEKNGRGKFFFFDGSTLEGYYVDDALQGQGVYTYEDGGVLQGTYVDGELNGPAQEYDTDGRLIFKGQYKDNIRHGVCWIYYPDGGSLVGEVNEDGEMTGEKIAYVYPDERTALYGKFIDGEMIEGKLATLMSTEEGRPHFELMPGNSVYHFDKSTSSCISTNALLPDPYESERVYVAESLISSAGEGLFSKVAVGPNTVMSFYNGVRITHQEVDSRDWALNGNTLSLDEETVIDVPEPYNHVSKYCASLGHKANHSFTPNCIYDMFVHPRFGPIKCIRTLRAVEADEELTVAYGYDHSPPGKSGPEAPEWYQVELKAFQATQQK

Row | Structure (SMILES) | IC50
1 | CN1CCN(C2c3ccccc3Sc3ccccc32)CC1 | > 100 µM
2 | CN1CCC(OC2c3ccccc3C=Cc3ccccc32)CC1 | > 100 µM
3 | CN1CCC(OC2c3ccccc3Sc3ccccc32)CC1 | > 100 µM
4 | CN1CCC(=C2c3ccccc3Sc3ccccc32)CC1 [PIMETHIXENE] | 4.3 µM
5 | CN1CCC(=C2c3ccccc3C=Cc3ccccc32)CC1 [CYPROHEPTADINE] | 3.4 µM
6 | CN1CCN(C2c3ccccc3C=Cc3ccccc32)CC1 | > 100 µM
7 | CN1CCN(C2c3ccccc3Oc3ccccc32)CC1 | > 100 µM
8 | CN1CCC(OC2c3ccccc3Oc3ccccc32)CC1 | > 100 µM
